{
  "source": "paper PMC4783973",
  "about": "“Synthetic Human TLR9-LRR11 Peptide Attenuates TLR9 Signaling by Binding to and thus Decreasing Internalization of CpG Oligodeoxynucleotides” (International Journal of Molecular Sciences, 2016)",
  "key": {"IκBα and ERK1/2": {"test_system": "IκBα and ERK1/2", "settings": "LPS-induced; ref [22]; cited from earlier work", "text": "(§1) NF-κB is one of the most important inflammatory switches that comprise a series of transcription factors that regulate the expressions of various proinflammatory cytokines (IL-1, IL-6, IL-8 and TNF-α). NF-κB activation is depended on the degradation and phosphorylation of IκBα [12]."}, "[1]": {"test_system": "LPS-induced cytokine release", "settings": "by decreasing both IκBα and ERK1/2 phosphorylation; ref [22]; cited from earlier work"}, "NF-κB p65 subunit": {"test_system": "NF-κB p65 subunit", "assay": "NF-κB activity assay, p65 subunit in nuclear extract of RAW264.7 cells (Trans^AM ELISA)", "assay_type": "cell-based", "settings": "peptide alone 4.5 μM; 4 h; n = 3", "protocol": "Figure 3 Synthetic peptide (SP) inhibited NF-κB activation induced by CpG oligodeoxynucleotides (CpG ODN) in RAW264.7 cells. RAW264.7 cells (5.0 × 10^6 cells) grown in six-well plates were treated with 1.5 μM of ODN2006 (A) or ODN107 (B) preincubated with SP (0, 0.5, 1.5, or 4.5 μM) or unrelated peptide (URP) (4.5 μM) at 37 °C for 15 min. After incubation for 4 h, the cells were collected to extract nuclear proteins. The p65 subunit was detected using enzyme-linked immunosorbent assay (ELISA) kits. Data from one of three independent experiments are shown (n = 3). “*”, p < 0.05 vs. ODN2006 or ODN107; “**”, p < 0.01 vs. ODN2006 or ODN107; “#”, p > 0.05 vs. ODN2006 or ODN107.\n(§2) The RAW264.7 cell line was purchased from American Type Culture Collection (ATCC, Manassas, VA, USA). Cells were cultured in DMEM (high glucose) medium containing 10% FCS in a 37 °C humidified atmosphere with 5% CO2. Cells diluted with 0.4% trypan blue in phosphate-buffered saline (PBS, 0.1 mM, pH 7.2–7.4) were counted using a hemocytometer.\nRAW264.7 cells (5.0 × 10^6 cells) were placed in six-well plates for 4 h, and the supernatants were then replaced with fresh medium containing 1.5 μM of ODN2006 or ODN107 that had been preincubated with SP (0, 0.5, 1.5, or 4.5 μM) or URP (4.5 μM) at 37 °C for 15 min. After incubation for 4 h, the cells were collected to extract nuclear proteins. Equal amounts of each sample were used to detect the DNA binding activity of the NF-κB p65 subunit using Trans^AM NF-κB ELISA kits (Active Motif), according to the manufacturer’s instructions."}, "RAW264.7 cells [2]": {"test_system": "RAW264.7 cells", "assay": "FAM-2006 internalization within RAW264.7 cells, laser confocal scanning", "assay_type": "cell-based", "settings": "peptide 4.5 μM preincubated with FAM-2006 1.5 μM; 30 min; n = 100", "protocol": "Figure 5 Synthetic peptide (SP) inhibited ODN2006 internalization, as assessed using laser confocal scanning (Scale bar = 20 μm). RAW264.7 cells (1 × 10^6 cells) grown on 2-cm glass bottom dishes were treated with normal medium, 1.5 μM of FAM-labeled ODN2006 (FAM-2006) that had been preincubated with SP (0, 0.5, 1.5 or 4.5 μM) or unrelated peptide (URP; 4.5 μM) at 37 °C for 15 min. After treatment for 30 min, cells were washed with warm phosphate buffered saline (PBS) and fixed with 4% (m/v) paraformaldehyde, then stained with DAPI (4′,6-diamidino-2-phenylindole) (blue). The intracellular FAM-2006 (green) was observed using a laser confocal microscope (A); Mean fluorescence intensity (MFI) values (B) and the percentages of cells with FAM-2006 dots (green fluorescence) (C) were calculated by the ZENlite 2012 software (n = 100). “**”, p < 0.01; “#”, p > 0.05 vs. FAM-2006 alone.\nThe RAW264.7 cell line was purchased from American Type Culture Collection (ATCC, Manassas, VA, USA). Cells were cultured in DMEM (high glucose) medium containing 10% FCS in a 37 °C humidified atmosphere with 5% CO2. Cells diluted with 0.4% trypan blue in phosphate-buffered saline (PBS, 0.1 mM, pH 7.2–7.4) were counted using a hemocytometer. […]"}, "ODN2006": {"test_system": "ODN2006", "assay": "IAsys biosensor binding to immobilized biotinylated ODN2006", "settings": "IAsys Plus biosensor; peptide 50 μM", "protocol": "Figure 8 Synthetic peptide (SP) specifically binds ODN2006. (A) Binding curves generated by the IAsys biosensor. Biotinylated ODN2006 was immobilized on the surface of a streptavidin-coated cuvette. A series of concentration of SP (3.1, 6.3, 12.5, 25 or 50 μM) or unrelated peptide (URP) (50 μM) were added separately into the cuvette to generate the binding curves. Data were analyzed using FASTplot, and the dissociation equilibrium constant (KD) of SP was calculated using FASTfit; (B) Binding curves generated by the Biacore biosensor. Biotinylated ODN2006 was immobilized on a streptavidin-coated chip, and then a series of concentrations of SP (0.63, 1.25, 2.5, 5 or 10 μM) or URP (10 μM) were loaded separately to generate the binding curves. Data analysis and KD calculation were performed using the BIAevaluation software.\nThe affinity assay was firstly carried out using an IAsys Plus affinity biosensor (Thermo Labsystem, Altrincham, Cheshire, UK), according to our previous report. Biotinylated ODN2006 was immobilized on the surface of a streptavidin-coated cuvette according to the user manual. […] Binding curves were analyzed and visualized using FASTplot (Thermo), and the dissociation equilibrium constant (KD) of SP with ODN2006 was calculated using FASTfit (Thermo)."}, "RAW264.7 cells [3]": {"test_system": "RAW264.7 cells", "assay": "TNF-α and IL-6 release from RAW264.7 cells, both cytokines stated together (ELISA)", "assay_type": "cell-based, mouse", "settings": "peptide alone, without CpG ODN; 6 h", "protocol": "Figure 1 Synthetic peptide (SP) decreased TNF-α and IL-6 release from RAW264.7 cells treated with CpG oligodeoxynucleotides (CpG ODN). RAW264.7 cells (4.0 × 10^5 cells) grown in 48-well plates were treated with 1.5 μM of ODN2006 or ODN107 preincubated with SP (0, 0.5, 1.5, or 4.5 μM) or unrelated peptide (URP) (4.5 μM) at 37 °C for 15 min. After incubation for 6 h, the supernatants were collected to detect TNF-α (A) and IL-6 (B) using enzyme-linked immunosorbent assay (ELISA) kits. Data from one of three independent experiments are shown (n = 4). “*”, p < 0.05 vs. ODN2006 or ODN107; “**”, p < 0.01 vs. ODN2006 or ODN107; “#”, p > 0.05 vs. ODN2006 or ODN107.\nExperiments were performed as described in Figure 1. The concentrations of ODN2006, LPS, PAM3 and SP were 1.5 μM, 20 ng/mL, 5 μg/mL and 1.5 μM, respectively. Data from one of three independent experiments are shown (n = 3).\nas §2\nRAW264.7 cells (4.0 × 10^5 cells) were incubated in 48-well plates for 4 h, and supernatants were replaced with 0.4 mL of serum-free DMEM medium containing 1.5 μM of ODN2006 or ODN107, which had been preincubated with 0, 0.5, 1.5 or 4.5 μM of SP or 4.5 μM of URP at 37 °C for 15 min. After incubation for 6 h, the supernatants were collected to detect TNF-α and IL-6 concentrations using corresponding ELISA kits (eBioscience)."}, "[4]": {"test_system": "IκBα phosphorylation and NF-κB activation", "settings": "ref [19],[20]; cited from earlier work", "text": "as §1"}, "[5]": {"test_system": "CpG ODN-induced cytokine release", "settings": "ref [19],[20]; cited from earlier work", "text": "CpG ODN-induced diseases, such as sepsis and some autoimmune disorders, are triggered by uncontrolled release of proinflammatory cytokines, e.g., TNF-α and IL-6 [18]. […] Herein, we firstly evaluated the inhibitory effect of SP on CpG ODN-induced cytokine release in the cellular tests. Tw ... || NF-κB is one of the most important inflammatory switches that comprise a series of transcription factors that regulate the expressions of various proinflammatory cytokines (IL-1, IL-6, IL-8 and TNF-α). NF-κB activation is depended on the degradation and phosphorylation of IκBα [12]."}},
  "data": [
    {"compound": "COc1ccc(/C=C/c2cc(O)cc(O)c2)cc1", "note": "[desoxyrhapontigenin]", "values": [
      {"measurement": "effect on IκBα and ERK1/2 phosphorylation", "setting": "IκBα and ERK1/2", "value": "decreasing both of IκBα and ERK1/2 phosphorylation"},
      {"measurement": "effect on LPS-induced cytokine release", "setting": "[1]", "value": "inhibited LPS-induced cytokine release"}
    ]},
    {"compound": "LQTLDLRDNALTTIHFIPSIPD [URP, unrelated peptide derived from LRR14 of human TLR5, used as negative control]", "values": [
      {"measurement": "effect of peptide alone on p65 activation", "setting": "NF-κB p65 subunit", "value": "no effect"},
      {"measurement": "mean fluorescence intensity (MFI) produced by FAM-2006 within the cells", "setting": "RAW264.7 cells [2]", "value": "no such effect"},
      {"measurement": "binding response to ODN2006", "setting": "ODN2006", "value": "no such response"},
      {"measurement": "effect of peptide alone on TNF-α and IL-6 release", "setting": "RAW264.7 cells [3]", "value": "no influence on cytokines release"}
    ]},
    {"compound": "kukoamine B", "values": [
      {"measurement": "effect on IκBα phosphorylation and NF-κB activation", "setting": "[4]", "value": "inhibitors of IκBα phosphorylation and NF-κB activation"},
      {"measurement": "effect on CpG ODN-induced cytokine release", "setting": "[5]", "value": "inhibitors of CpG ODN-induced cytokine release"},
      {"measurement": "effect on proinflammatory cytokines", "setting": "[5]", "value": "inhibited proinflammatory cytokines"}
    ]}
  ]
}
